# Reference: patent US8129337B2, “Compositions comprising epigallocatechin gallate and protein hydrolysate” (DSM IP Assets B.V., priority 2005, dated 2012)
# System: db/db mice
# Assay: Pathologically changed islets of Langerhans in pancreata of db/db mice after 10 weeks of diet
# Format: in vivo, mouse
# Conditions: 10 weeks of feeding the diet
# Description: Diets containing EGCG, or protein hydrolysate, or the combination of EGCG and protein hydrolysate, or placebo were administered to db/db mice (6 weeks old). The db/db mouse model of severe type 2 diabetes mellitus is well established and commonly used to assess the antidiabetic properties of nutritional or pharmaceutical interventions. Furthermore, the animals are characterized by a progressive loss of pancreatic function and pathological changes of pancreatic histology and morphology. The pancreatic damage occurring in db/db mice is the consequence of high blood glucose and lipid levels. After 10 weeks of administration of the respective diets pancreata of all mice were removed and assessed for pathologically changed islets of Langerhans.
smiles,measurement,setting,value
"O=C(O[C@@H]1Cc2c(O)cc(O)cc2O[C@@H]1c1cc(O)c(O)c(O)c1)c1cc(O)c(O)c(O)c1 [EGCG, epigallocatechin gallate]",Pathological islets (in % of total islets),"db/db mice (6 weeks old at start), n = 9 per group, means ± SEM",36.5 ± 4.1 % of total islets
same,Effect on pathologically changed islets of Langerhans compared to placebo (in words),db/db mice,less pathologically changed islets of Langerhans compared to placebo
